Laboratory results from the supplement of paper PMC10307832.

Experiments:
Experiment in all cases: relative viability (nuclei count vs DMSO), 5 days (fraction); higher = more cells survive
Carboplatin + AZD7762 = compound: C1CC(C1)(C(=O)O)C(=O)O.[NH2-].[NH2-].[Pt+2] [Carboplatin] + NC(=O)Nc1cc(-c2cccc(F)c2)sc1C(=O)N[C@H]1CCCNC1 [AZD7762] (partner 0.2 µM)
Summary of the method: (§1)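 Nuclei were stained with Hoechst during a one-step fixation (final 0.05% Triton X-100, 1% formaldehyde, 1 ug/ml Hoechst) carried out 5 days after dosing, then counted on 4× images. The cells, lung cancer lines in 1536-well plates, had been dosed by pin tool the day after seeding with one drug alone or a fixed anchor-drug dose plus five library-drug doses (not always all listed) in √10 steps. Relative viability is the nuclei count in treated wells divided by that in vehicle wells, and each value is the median of duplicate plates.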

Carboplatin + Lapatinib = compound: C1CC(C1)(C(=O)O)C(=O)O.[NH2-].[NH2-].[Pt+2] [Carboplatin] + CS(=O)(=O)CCNCc1ccc(-c2ccc3ncnc(Nc4ccc(OCc5cccc(F)c5)c(Cl)c4)c3c2)o1 [Lapatinib] (partner 2 µM)
Summary of the method: as §1

MLN4924 + Pictilisib = compound: NS(=O)(=O)OC[C@@H]1C[C@@H](n2ccc3c(N[C@H]4CCc5ccccc54)ncnc32)C[C@@H]1O [MLN4924] + CS(=O)(=O)N1CCN(Cc2cc3nc(-c4cccc5[nH]ncc45)nc(N4CCOCC4)c3s2)CC1 [Pictilisib] (partner 1 µM)
Summary of the method: as §1

Carboplatin + Luminespib = compound: C1CC(C1)(C(=O)O)C(=O)O.[NH2-].[NH2-].[Pt+2] [Carboplatin] + CCNC(=O)c1noc(-c2cc(C(C)C)c(O)cc2O)c1-c1ccc(CN2CCOCC2)cc1 [Luminespib] (partner 0.01 µM)
Summary of the method: as §1

Cell Line	relative viability (Carboplatin + AZD7762; first compound 0.08 µM)	relative viability (Carboplatin + AZD7762; first compound 0.253 µM)	relative viability (Carboplatin + AZD7762; first compound 0.8 µM)	relative viability (Carboplatin + AZD7762; first compound 2.53 µM)	relative viability (Carboplatin + AZD7762; first compound 8 µM)	relative viability (Carboplatin + Lapatinib; first compound 0.08 µM)	relative viability (Carboplatin + Lapatinib; first compound 0.253 µM)	relative viability (Carboplatin + Lapatinib; first compound 0.8 µM)	relative viability (Carboplatin + Lapatinib; first compound 2.53 µM)	relative viability (Carboplatin + Lapatinib; first compound 8 µM)	relative viability (MLN4924 + Pictilisib; first compound 0.04 µM)	relative viability (MLN4924 + Pictilisib; first compound 0.1265 µM)	relative viability (MLN4924 + Pictilisib; first compound 0.4 µM)	relative viability (MLN4924 + Pictilisib; first compound 1.265 µM)	relative viability (MLN4924 + Pictilisib; first compound 4 µM)	relative viability (Carboplatin + Luminespib; first compound 0.08 µM)	relative viability (Carboplatin + Luminespib; first compound 0.253 µM)	relative viability (Carboplatin + Luminespib; first compound 0.8 µM)	relative viability (Carboplatin + Luminespib; first compound 2.53 µM)	relative viability (Carboplatin + Luminespib; first compound 8 µM)
HCC-366	0.442	0.256	0.155	0.126	0.0971	1.08	1.01	0.988	0.963	0.863	0.232	0.496	0.326	0.102	0.0407	–	–	–	–	–
NCI-H1650	–	–	–	–	–	0.944	0.878	0.825	0.795	0.661	0.373	0.245	0.182	0.124	0.183	0.212	0.217	0.189	0.215	0.196
NCI-H522	0.783	0.74	0.876	0.908	0.728	–	–	–	–	–	–	–	–	–	–	1.05	1.38	0.851	0.904	0.835
IA-LM	–	–	–	–	–	0.809	0.802	0.739	0.929	0.77	0.342	0.145	0.0958	0.0574	0.0645	–	–	–	–	–
NCI-H2228	–	–	–	–	–	1.61	0.939	1.01	0.868	0.616	–	0.504	0.101	0.111	0.196	0.179	0.136	0.115	0.158	0.132
NCI-H1623	–	–	–	–	–	–	–	–	–	–	–	–	–	–	–	0.548	0.469	0.457	0.507	0.433
SK-LU-1	–	–	–	–	–	0.99	1.01	0.766	0.797	0.735	0.411	0.505	0.383	0.171	0.172	0.22	0.21	0.192	0.21	0.198
SK-MES-1	–	–	–	–	–	0.469	0.475	0.506	0.548	0.472	0.425	0.535	0.356	0.174	0.198	0.891	0.763	0.714	0.777	0.81
COR-L 105	–	–	–	–	–	0.354	0.349	0.381	0.332	0.382	0.427	0.455	0.399	0.268	0.274	1.04	0.851	0.677	0.667	0.648
NCI-H520	–	–	–	–	–	1.07	0.985	1.03	0.784	0.59	0.322	0.402	0.359	0.276	0.238	0.256	0.209	0.183	0.21	0.211
